Where “and” joins values, the source holds several entries; their conditions need not be identical. Identical values can stand only once. Entries after “also recorded” stand apart in the source; their conditions may differ. Like-named read-outs stand apart in the source and are kept apart here.
Legend:
[1] = tested on: HT29 (colon cancer (adenocarcinoma, primary tumor)); test: cells; details: for Percentage of cells killed: HT29; for CC50: Homo sapiens
Description: (§1) Cell Survival-MTT assay: The MTT (3-[4,5-Dimethylthiazol-2-yl]-2,5 diphenyl tertrazolim bromide) method of determining cell growth/cytotoxicity was used to determine cell survival. MTT is a tetrazolium salt that binds to b mitochondrial dehydrogenases of living cells. Binding converts yellow, water soluble MTT to an insoluble, purple formazan crystal. The crystals are solubilized with a 50% N,N-dimethylformamide (vol/vol), 20% SDS (wt/vol) solution (pH 4.7), and absorbance is determined at a wavelength of 570 nm. Unbound MTT is not detectable at this wavelength. The amount of bound MTT measured in the assay is proportional to the number of live cells present. (Niks and Otto 1990: “Towards an optimized MTT assay,” J. Immunol. Methods. 130, 149-151, Hussain et al. 1993; “A new approach for measurement of cytotoxicity using colorimetric assay,” J. Immunol. Methods. 160, 89-96).
(§2) Cells were harvested from cell cultures using the standard protocol (Trypsin/EDTA). The cells (1000 to 5000 cells in 50 μl of solution depending on cell type used) were then plated and incubated overnight at 37° C. before the addition of the agent or combination of agents.) After 2 days of incubation at 37° C., 10 μl of a 5 mg/ml solution of MTT was then added to all the wells and to a media control well. The plates were further incubated for 4 hours. A 100 μl of MTT solubilization buffer was added and the plates were incubated overnight at 37° C. The plates were then read on the ELISA plate reader with absorbance at 570 nm and a reference at 630 nm.
(§3) The effects of combinations were tested on three representative cancer cell lines: H661 (lung cancer (carcinoma)), MCF-7 (breast cancer (adenocarcinoma, pleural effusion)), and HT29 (colon cancer (adenocarcinoma, primary tumor)). Initial assays were carried out to determine the concentrations at which taxol, oxaliplatin, gemcitabine, or CPT 11 (also known as irinotecan) killed approximately 10% of the cells under investigation.

[2] = tested on: MCF-7 (breast cancer (adenocarcinoma, pleural effusion)); test: cells; details: for Percentage of cells killed: MCF7; for CC50: Homo sapiens
Description: as §1, §2, §3

[3] = tested on: H661 (lung cancer (carcinoma)); test: cells; details: for Percentage of cells killed: H661; for CC50: Homo sapiens
Description: as §1, §2, §3

[4] = repeated dosing; cited from earlier work
[5] = tested on: metastatic colorectal cancer (mCRC); test: Phase I/II trial of pentamidine with chemotherapy in previously treated mCRC (Example 5); format: in vivo, human
[6] = tested on: BxPC3 human pancreas xenograft; details: IP bi-weekly; Pentamidine 45 mg/kg, Gemcitabine 150 mg/kg
Description: BxPC3 cells were transplanted subcutaneously into the flank of each animal as a suspension of tumor cells (5×10^6 cells in 0.1 mL in PBS) on Jan. […] Transplantation was performed under a laminar airflow hood. […] Animals were labeled using the “ear punching” method so that for each group, all 10 animals could be distinguished. Each group of 10 mice was housed in 2 separate cages of 5 mice each; animal numbers 1 to 5 were housed in Cage A and animal numbers 6 to 10 were housed in Cage B.
Prior to every dosing injection, each animal was weighed and received their respective formulations. […] Mice in group 3 were treated intraperitoneally, bi-weekly (Tuesday-Friday) at 150 mg/kg with Gemcitabine for eleven weeks. […] The dose volume was 30 mL/kg for mice treated intraperitoneally.
At termination, when the tumor volume of one of the mice in the group reached 1500 mm^3, the whole group was sacrificed, and animals were anaesthetized using isoflurane and sacrificed by cervical dislocation.

[7] = tested on: metastatic colon cancer; test: Phase I/IIa clinical trial colon cancer (Example 3); format: in vivo, human; details: interim results; I.V. pentamidine Day -2 and Day -1 before chemotherapy cycle
Description: (FOLFOX regimens contain oxaliplatin, FOLFIRI regimens contain CPT 11 also known as Irinotecan; and IROX regimens contain Irinotecan and Oxaliplatin). Patients may also receive bevacizumab (Avastin) as part of chemotherapy or cetuximab (Erbitux) or panitumumab (Vectibix). Twenty-two patients are enrolled to date.
A further dose is being given on Day −1.
Both dose escalation and treatment with pentamidine alone are at the discretion of the treating physician.
Almost all patients will have previously failed on their current treatment or a combination thereof.

[8] = injected slowly into patients; cited from earlier work
[9] = 13 evaluable pts, first 2 cycles
[10] = 13 evaluable pts, pentamidine before CTX
[11] = per patient, NCI CTCAEv3, pentamidine + CTX
[12] = preliminary analysis, pentamidine + CTX

CCc1c2c(nc3ccc(OC(=O)N4CCC(N5CCCCC5)CC4)cc13)-c1cc3c(c(=O)n1C2)COC(=O)[C@]3(O)CC [CPT-11, camptothecin-11]
Percentage of cells killed ([1]; CPT-11 3.2 μM alone): 6%
Percentage of cells killed ([2]; CPT-11 3.2 μM alone): 30%
Percentage of cells killed ([3]; CPT-11 3.2 μM alone): 14%

O=C1[O][Pt]2([NH][C@@H]3CCCC[C@H]3[NH]2)[O]C1=O [Oxaliplatin, oxaliplatin]
Percentage of cells killed ([1]; Oxaliplatin 0.25 μM alone): 10%
Percentage of cells killed ([2]; Oxaliplatin 0.25 μM alone): 8%
Percentage of cells killed ([3]; Oxaliplatin 0.25 μM alone): 14%

N=C(N)c1ccc(OCCCCCOc2ccc(C(=N)N)cc2)cc1 [Pentamidine]
time after final dose at which pentamidine was detected in tissue [4]: 25 days
DLT anorexia, share of pts [5, 9]: 8%
DLT hyperglycaemia, share of pts [5, 9]: 8%
Grade 3/4 AEs attributed to pentamidine: hyperglycaemia [5, 10]: 23%
Grade 3/4 AEs attributed to pentamidine: hyperlipasemia [5, 10]: 15%
activity in mCRC that has progressed on standard lines of treatment (in words) ([5]; Pentamidine & CTX): disease stabilizing activity
Reason for exiting the trial: Fatigue ([5]; initial 17 pts): 12%
Reason for exiting the trial: Fatigue, number of pts ([5]; initial 17 pts): 2
Reason for exiting the trial: PD ([5]; initial 17 pts): 35%
Reason for exiting the trial: PD, number of pts ([5]; initial 17 pts): 6
Reason for exiting the trial: Toxicity attributed to pentamidine ([5]; initial 17 pts): 18%
Reason for exiting the trial: Toxicity attributed to pentamidine, number of pts ([5]; initial 17 pts): 3
Response at patient exit from trial: CR ([5]; initial 17 pts): 0%
Response at patient exit from trial: CR, number of pts ([5]; initial 17 pts): 0
Response at patient exit from trial: PD ([5]; initial 17 pts): 47%
Response at patient exit from trial: PD, number of pts ([5]; initial 17 pts): 8
Response at patient exit from trial: PR ([5]; initial 17 pts): 0%
Response at patient exit from trial: PR, number of pts ([5]; initial 17 pts): 0
Response at patient exit from trial: SD ([5]; initial 17 pts): 35%
Response at patient exit from trial: SD, number of pts ([5]; initial 17 pts): 6
Best response during treatment: CR ([5]; initial 17 pts, RECIST): 0%
Best response during treatment: CR, number of pts ([5]; initial 17 pts, RECIST): 0
Best response during treatment: PD ([5]; initial 17 pts, RECIST): 24%
Best response during treatment: PD, number of pts ([5]; initial 17 pts, RECIST): 4
Best response during treatment: PR ([5]; initial 17 pts, RECIST): 6%
Best response during treatment: PR, number of pts ([5]; initial 17 pts, RECIST): 1
Best response during treatment: SD ([5]; initial 17 pts, RECIST): 59%
Best response during treatment: SD, number of pts ([5]; initial 17 pts, RECIST): 10
Attribution to Pentamidine: Anorexia ([5]; per patient): possibly
Attribution to Pentamidine: Diarrhea ([5]; per patient): No (2×) and possibly
Attribution to Pentamidine: Elevated Lipase ([5]; per patient): posssibly; also recorded: definitely
Attribution to Pentamidine: Fainting/syncope ([5]; per patient): No
Attribution to Pentamidine: General deterioration ([5]; per patient): No
Attribution to Pentamidine: Hand-foot reaction ([5]; per patient): No
Attribution to Pentamidine: Neutropenia ([5]; per patient): possibly
Attribution to Pentamidine: Urinary tract infection ([5]; per patient): No
AE Grade: Anorexia [5, 11]: 3
AE Grade: Diarrhea [5, 11]: 3
AE Grade: Elevated Lipase [5, 11]: 3
AE Grade: Fainting/syncope [5, 11]: 3
AE Grade: General deterioration [5, 11]: 4
AE Grade: Hand-foot reaction [5, 11]: 3
AE Grade: Neutropenia [5, 11]: 3
AE Grade: Urinary tract infection [5, 11]: 3
toxicity of pentamidine with CTX (in words) ([5]; preliminary analysis): consistent with known side effects of pentamidine; also recorded: manageable
Median OS time [5, 12]: has not yet been reached
median PFS time [5, 12]: 4.4 months
Percentage of cells killed ([1]; Pentamidine 0.15 mM alone): 13%
CC50 ([1]; HT-29, 48 h, read-out: LC50 of Pentamidine): 270 µM
CC50 ([1]; HT-29, read-out: LC50 of Pentamidine With CPT11 (0.25 μM)): 12 µM
CC50 ([1]; HT-29, read-out: LC50 of Pentamidine With Gemcitabine (0.26 μM)): 30 µM
CC50 ([1]; HT-29, read-out: LC50 of Pentamidine With Oxaliplatin (0.25 μM)): 9 µM
CC50 ([1]; HT-29, read-out: LC50 of Pentamidine with Taxol (2 μM)): 130 µM
CC50 ([2]; MCF7, 48 h, read-out: LC50 of Pentamidine): 150 µM
CC50 ([2]; MCF7, read-out: LC50 of Pentamidine With CPT11 (0.25 μM)): 26 µM
CC50 ([2]; MCF7, read-out: LC50 of Pentamidine With Gemcitabine (0.26 μM)): 66 µM
CC50 ([2]; MCF7, read-out: LC50 of Pentamidine With Oxaliplatin (0.25 μM)): 9 µM
CC50 ([2]; MCF7, read-out: LC50 of Pentamidine with Taxol (2 μM)): 60 µM
Percentage of cells killed ([2]; Pentamidine 0.15 mM alone): 50%
Percentage of cells killed ([3]; Pentamidine 0.15 mM alone): 50%
CC50 ([3]; NCI-H661, 48 h, read-out: LC50 of Pentamidine): 150 µM
CC50 ([3]; NCI-H661, read-out: LC50 of Pentamidine With CPT11 (0.25 μM)): 3 µM
CC50 ([3]; NCI-H661, read-out: LC50 of Pentamidine With Gemcitabine (0.26 μM)): 27 µM
CC50 ([3]; NCI-H661, read-out: LC50 of Pentamidine With Oxaliplatin (0.25 μM)): 3 µM
CC50 ([3]; NCI-H661, read-out: LC50 of Pentamidine with Taxol (2 μM)): 7 µM
effect in the treatment of pancreatic cancer (tumor growth, FIG. 3) [6]: beneficial effect
overall survival compared with best current therapy [7]: significantly enhances overall survival

Nc1ccn([C@@H]2O[C@H](CO)[C@@H](O)C2(F)F)c(=O)n1 [Gemcitabine, gemcitabine]
Percentage of cells killed ([1]; Gemcitabine 0.26 μM alone): 23%
Percentage of cells killed ([2]; Gemcitabine 0.26 μM alone): 23%
Percentage of cells killed ([3]; Gemcitabine 0.26 μM alone): 25%

N.N.[Cl][Pt][Cl] [Cis-platinum]
urinary excretion [8]: ≤ 75%

Source: US20120128667A1 (ONCOZYME PHARMA INC., priority 2009, published 2012)
